Results published in PMC8788362, “Rational design and synthesis of 2-(1H-indazol-6-yl)-1H-benzo[d]imidazole derivatives as inhibitors targeting FMS-like tyrosine kinase 3 (FLT3) and its mutants” (Journal of Enzyme Inhibition and Medicinal Chemistry, 2022).
Residue numbers refer to the chain shown, from its start. “And” between values parts separate entries of the source, which are not always exact repeats. Identical values can stand only once.

How the values were obtained:
FLT3 wild type = target: T1, FLT3 wild type (Homo sapiens, UniProt P36888); experiment: Reaction Biology Kinase HotSpot radiometric kinase assay; assay type: biochemical; conditions: ATP 10 µM; read-out: FLT3 IC50
T1 construct: purchased Reaction Biology Corp. (Kinase HotSpot service)
T1 sequence (P36888 27-993): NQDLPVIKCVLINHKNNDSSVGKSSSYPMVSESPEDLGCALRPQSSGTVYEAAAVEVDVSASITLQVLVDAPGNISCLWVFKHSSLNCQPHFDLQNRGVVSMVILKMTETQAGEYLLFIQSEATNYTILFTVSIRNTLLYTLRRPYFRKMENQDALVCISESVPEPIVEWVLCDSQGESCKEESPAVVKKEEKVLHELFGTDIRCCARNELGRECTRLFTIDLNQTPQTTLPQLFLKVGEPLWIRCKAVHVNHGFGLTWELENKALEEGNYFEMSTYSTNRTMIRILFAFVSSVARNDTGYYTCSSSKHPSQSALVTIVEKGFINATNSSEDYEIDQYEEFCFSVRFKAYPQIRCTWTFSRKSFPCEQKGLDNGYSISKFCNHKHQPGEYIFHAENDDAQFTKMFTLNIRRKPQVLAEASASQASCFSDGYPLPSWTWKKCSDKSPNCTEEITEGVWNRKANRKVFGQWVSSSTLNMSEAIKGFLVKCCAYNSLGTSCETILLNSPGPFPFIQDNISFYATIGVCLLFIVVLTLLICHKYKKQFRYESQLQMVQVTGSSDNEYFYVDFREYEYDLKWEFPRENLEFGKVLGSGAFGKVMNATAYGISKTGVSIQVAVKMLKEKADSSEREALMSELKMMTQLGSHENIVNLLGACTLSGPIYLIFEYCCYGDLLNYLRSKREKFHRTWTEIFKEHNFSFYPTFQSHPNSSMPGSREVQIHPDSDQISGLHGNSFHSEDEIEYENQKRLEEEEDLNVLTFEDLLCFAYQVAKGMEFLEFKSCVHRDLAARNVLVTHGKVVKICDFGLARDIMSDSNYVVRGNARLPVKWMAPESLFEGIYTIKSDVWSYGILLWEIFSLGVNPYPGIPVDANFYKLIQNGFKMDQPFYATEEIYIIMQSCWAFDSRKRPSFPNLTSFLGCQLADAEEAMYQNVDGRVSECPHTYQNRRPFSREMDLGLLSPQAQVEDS
Source text: (§1) (specific activity approx. 500 cpm/pmol, concentration as required).

FLT3 (D835Y) = target: T2, FLT3 (D835Y) (Homo sapiens, UniProt P36888, D835Y); experiment: as above; assay type: biochemical
T2 construct: purchased Reaction Biology Corp. (Kinase HotSpot service)
T2 sequence (P36888 27-993 D835Y): T1 sequence (P36888 27-993) with D809Y
Source text: as §1

Compound | melting point | IC50 (FLT3 wild type) | IC50 (FLT3 (D835Y)) | fold more potent against FLT3-D835Y than against wild-type FLT3 (FLT3 (D835Y); ratio of IC50 values)
CC(C)(C)c1cc(C(=O)Nc2ccc3[nH]c(-c4ccc5cn[nH]c5c4)nc3c2)no1 [8h, N-(2-(1H-Indazol-6-yl)-1H-benzo[d]imidazol-5-yl)-5-(tert-butyl)isoxazole-3-carboxamide] | 147 to 149 °C | 702 nM | 82 nM | 
CN1CCN(c2cc(C(=O)Nc3ccc4[nH]c(-c5ccc6cn[nH]c6c5)nc4c3)cc(C(F)(F)F)c2)CC1 [8a, N-(2-(1H-Indazol-6-yl)-1H-benzo[d]imidazol-5-yl)-3–(4-methylpiperazin-1-yl)-5-(trifluoromethyl)benzamide] | 228 to 230 °C | 181 nM | 21 nM | 
O=C(Nc1ccc2[nH]c(-c3ccc4cn[nH]c4c3)nc2c1)c1ccc(N2CCOCC2)c(C(F)(F)F)c1 [8f, N-(2-(1H-Indazol-6-yl)-1H-benzo[d]imidazol-5-yl)-4-morpholino-3-(trifluoromethyl)benzamide] | 202 to 204 °C | 2510 nM | 370 nM | 
COc1ccc(/C=C/C(=O)Nc2ccc3[nH]c(-c4ccc5cn[nH]c5c4)nc3c2)cc1 [8k, (E)-N-(2-(1H-Indazol-6-yl)-1H-benzo[d]imidazol-5-yl)-3–(4-methoxyphenyl)acrylamide] | 206 to 208 °C | 761 nM | 191 nM | 
O=C(Nc1ccc2[nH]c(-c3ccc4cn[nH]c4c3)nc2c1)c1cc(CN2CCN(C3CC3)CC2)cc(C(F)(F)F)c1 [8q, N-(2-(1H-Indazol-6-yl)-1H-benzo[d]imidazol-5-yl)-3-((4-cyclopropylpiperazin-1-yl)methyl)-5-(trifluoromethyl)benzamide] | 150 to 152 °C | 525 nM | 174 nM | 
CCN1CCC(Nc2cc(C(=O)Nc3ccc4[nH]c(-c5ccc6cn[nH]c6c5)nc4c3)cc(C(F)(F)F)c2)CC1 [8t, N-(2-(1H-Indazol-6-yl)-1H-benzo[d]imidazol-5-yl)-3-((1-ethylpiperidin-4-yl)amino)-5-(trifluoromethyl)benzamide] | 166 to 168 °C | 285 nM | 87 nM | 
CC(C)(C)c1cc(NC(=O)Nc2ccc3[nH]c(-c4ccc5cn[nH]c5c4)nc3c2)no1 [8l, 1–(2-(1H-Indazol-6-yl)-1H-benzo[d]imidazol-5-yl)-3–(5-(tert-butyl)isoxazol-3-yl)urea] | 184 to 186 °C | 1170 nM | 261 nM | 
CCN(CC)C1CCN(c2cc(C(=O)Nc3ccc4[nH]c(-c5ccc6cn[nH]c6c5)nc4c3)cc(C(F)(F)F)c2)C1 (stereo not shown) [8o, N-(2-(1H-Indazol-6-yl)-1H-benzo[d]imidazol-5-yl)-3–(3-(diethylamino)pyrrolidin-1-yl)-5-(trifluoromethyl)benzamide] | 221 to 223 °C | 841 nM | 120 nM | 
O=C(Nc1ccc(Cl)c(Cl)c1)Nc1ccc2[nH]c(-c3ccc4cn[nH]c4c3)nc2c1 [8m, 1–(2-(1H-Indazol-6-yl)-1H-benzo[d]imidazol-5-yl)-3–(3,4-dichlorophenyl)urea] | 144 to 146 °C | 3580 nM | 1010 nM | 
CCN1CCN(Cc2ccc(C(=O)Nc3ccc4[nH]c(-c5ccc6cn[nH]c6c5)nc4c3)cc2C(F)(F)F)CC1 [8w, N-(2-(1H-Indazol-6-yl)-1H-benzo[d]imidazol-5-yl)-4-((4-ethylpiperazin-1-yl)methyl)-3-(trifluoromethyl)benzamide] | 164 to 166 °C | 290 nM | 13 nM | 

The remaining compounds from weak to strong by IC50 (FLT3 wild type), led by results:

melting point | IC50 (FLT3 wild type) | IC50 (FLT3 (D835Y)) | fold more potent against FLT3-D835Y than against wild-type FLT3 (FLT3 (D835Y); ratio of IC50 values) | Compound
258 to 260 °C | 1100 nM | 63 nM |  | O=C(Nc1ccc2[nH]c(-c3ccc4cn[nH]c4c3)nc2c1)c1cnn(-c2ccccc2)c1C(F)(F)F [8g, N-(2-(1H-Indazol-6-yl)-1H-benzo[d]imidazol-5-yl)-1-phenyl-5-(trifluoromethyl)-1H-pyrazole-4-carboxamide]
239 to 241 °C | 639 nM | 110 nM |  | Cc1cn(-c2cc(C(=O)Nc3ccc4[nH]c(-c5ccc6cn[nH]c6c5)nc4c3)cc(C(F)(F)F)c2)cn1 [8b, N-(2-(1H-Indazol-6-yl)-1H-benzo[d]imidazol-5-yl)-3–(4-methyl-1H-imidazol-1-yl)-5-(trifluoromethyl)benzamide]
255 to 257 °C | 514 nM | 103 nM |  | O=C(Nc1ccc2[nH]c(-c3ccc4cn[nH]c4c3)nc2c1)c1ccc(Cl)c(Cl)c1 [8j, N-(2-(1H-Indazol-6-yl)-1H-benzo[d]imidazol-5-yl)-3,4-dichlorobenzamide]
251 to 253 °C | 470 nM | 108 nM |  | Cc1nccn1-c1cc(C(=O)Nc2ccc3[nH]c(-c4ccc5cn[nH]c5c4)nc3c2)cc(C(F)(F)F)c1 [8c, N-(2-(1H-Indazol-6-yl)-1H-benzo[d]imidazol-5-yl)-3–(2-methyl-1H-imidazol-1-yl)-5-(trifluoromethyl)benzamide]
293 to 295 °C | 289 nM | 55 nM |  | CN1CCC(Oc2cc(C(=O)Nc3ccc4[nH]c(-c5ccc6cn[nH]c6c5)nc4c3)cc(C(F)(F)F)c2)CC1 [8u, N-(2-(1H-Indazol-6-yl)-1H-benzo[d]imidazol-5-yl)-3-((1-methylpiperidin-4-yl)oxy)-5-(trifluoromethyl)benzamide]
283 to 285 °C | 287 nM | 113 nM |  | CN(C)C1CCN(c2cc(C(=O)Nc3ccc4[nH]c(-c5ccc6cn[nH]c6c5)nc4c3)cc(C(F)(F)F)c2)C1 (stereo not shown) [8n, N-(2-(1H-Indazol-6-yl)-1H-benzo[d]imidazol-5-yl)-3–(3-(dimethylamino)pyrrolidin-1-yl)-5-(trifluoromethyl)benzamide]
160 to 161 °C | 154 nM | 44 nM |  | CN1CCN(c2ccc(C(=O)Nc3ccc4[nH]c(-c5ccc6cn[nH]c6c5)nc4c3)cc2C(F)(F)F)CC1 [8e, N-(2-(1H-Indazol-6-yl)-1H-benzo[d]imidazol-5-yl)-4–(4-methylpiperazin-1-yl)-3-(trifluoromethyl)benzamide]
255 to 257 °C | 145 nM | 42 nM |  | CCN1CCN(Cc2cc(C(=O)Nc3ccc4[nH]c(-c5ccc6cn[nH]c6c5)nc4c3)cc(C(F)(F)F)c2)CC1(C)C [8y, N-(2-(1H-Indazol-6-yl)-1H-benzo[d]imidazol-5-yl)-3-((4-ethyl-3,3-dimethylpiperazin-1-yl)methyl)-5-(trifluoromethyl)benzamide]
213 to 214 °C | 107 nM | 8.86 nM and 9 nM | 7- to 12 fold | CN1CCCC(Nc2cc(C(=O)Nc3ccc4[nH]c(-c5ccc6cn[nH]c6c5)nc4c3)cc(C(F)(F)F)c2)C1 (stereo not shown) [8v, N-(2-(1H-Indazol-6-yl)-1H-benzo[d]imidazol-5-yl)-3-((1-methylpiperidin-3-yl)amino)-5-(trifluoromethyl)benzamide]
